The values that follow come from article PMC5572697, “A first-in-human study of the novel HIV-fusion inhibitor C34-PEG4-Chol” (Scientific Reports, 2017).

Molecules are shown by their SMILES. Entries after “also recorded” stand apart in the source; their conditions may differ. Read-outs that look alike come from different tables or passages of the source.

Series [1] has as its system HIV-positive men. The experiment in a line: First-in-human safety and injection site reaction (ISR) grading. Particulars: for ISR grade: one participant. The format is in vivo. How it is done:
Dosing was commenced at the lowest dose of 10 mg in a volume of 1 mL. Randomisation was undertaken using the InForm™ Integrated Trial Management system and was on a 1:1 basis, with no predefined stratifications. All clinical study staff were blinded. Clinical research pharmacists who were not part of the clinical research team, were not blinded in order to reconstitute study products. These members of the research pharmacy team had no involvement in the clinical care of participants during study procedures.
At all study time-points, participants were reviewed for ISRs, a symptom-directed physical examination was performed and blood samples were collected for full blood picture, electrolytes, liver enzymes, amylase and glucose. An electrocardiogram was performed pre-dose and 4 and 12 hours after dosing. A decision to proceed with dose escalation was made only after all four participants in each dose cohort had been observed for a minimum of 7 days for safety assessments. All safety data were reviewed by an independent data monitoring committee (IDMC).
Supplementary Information 1:
Table S1: List of injection site reactions (ISR) grading

Series [2] can be described thus: in vivo. Particulars: rat, Wistar Han rats; for AUC(0-inf): plasma LC-MS, mean of three animals per point. How it is done:
(§1) C34-PEG4-Chol first in man – Supplementary Information
(§2) Supplementary Information 2:
(§3) Preclinical Pharmacokinetics of C34-PEG4-Chol […]
(§4) C34-PEG4-Chol was formulated in 10 mM phosphate buffered saline (pH 7.2). The concentration of C34-PEG4-Chol in plasma samples was determined by LC-MS as previously […]
(1 picture or pasted object on this page, not shown here) […]
Figure S3. Pharmacokinetics of C34-PEG4-Chol in rats 3.5 mg/kg or 1.0 mg/kg (SC and IV, respectively) of C34-PEG4-Chol in 10mM phosphate buffered saline (PBS) were administered to Wistar Han rats: volume of administration 0.5 mL/kg. The concentration of the dosing solution was determined immediately after dosing with the same analytical method utilized to monitor peptide plasma concentration with time, and the analytical curves were adjusted accordingly. Each data point is the mean of three animals.
Table S3. Calculated pharmacokinetics parameters of C34-PEG4-Chol in rats, following intravenous (IV) and subcutaneous (SC) administration.

Series [3] can be described thus: in vivo. Particulars: rhesus monkey, rhesus monkeys; for AUC(0-inf): plasma LC-MS, mean of three animals per point. How it is done: as §1, §2, §3, §4
Figure S4. Pharmacokinetics of C34-PEG4-Chol in rhesus monkeys 2.0 mg/kg or 1.0 mg/kg (SC and IV administration, respectively) of C34-PEG4-Chol in 10mM phosphate buffered saline (PBS) were administered to rhesus monkeys: volume of administration 0.5 mL/kg. The concentration of the dosing solution was determined immediately after dosing with the same analytical method utilized to monitor peptide plasma concentration with time, and the analytical curves were adjusted accordingly. Each data point is the mean of three animals.
Table S4. Calculated pharmacokinetics parameters of C34-PEG4-Chol in rhesus monkeys, following intravenous (IV) and subcutaneous (SC) administration. […]

[4] abbreviates: IV 1.0 mg/kg, read-out: t½ (converted).

By clearance is commonly meant the rate of elimination divided by the concentration. Read a high clearance as efficient removal. What is called AUC(0-inf) is total exposure, with the tail of the curve extrapolated. Read a high AUC(0-inf) as more exposure. The Cmax is the maximum level reached in the sampled fluid or tissue. Usually Tmax stands for the time from dosing to the highest level. The bioavailability is dose-corrected exposure relative to a reference, in per cent. Higher therefore signals much systemic uptake. Consider `CC[C@H](C)[C@H](NC(=O)[C@H](CC(C)C)NC(=O)[C@H](CO)NC(=O)[C@H](Cc1c[nH]cn1)NC(=O)[C@@H](NC(=O)[C@H](CC(C)C)NC(=O)[C@H](CO)NC(=O)[C@@H](NC(=O)[C@H](Cc1ccc(O)cc1)NC(=O)[C@H](CC(N)=O)NC(=O)[C@H](CC(N)=O)NC(=O)[C@@H](NC(=O)[C@H](CCC(=O)O)NC(=O)[C@H](CCCNC(=N)N)NC(=O)[C@H](CC(=O)O)NC(=O)[C@H](Cc1c[nH]c2ccccc12)NC(=O)[C@H](CCC(=O)O)NC(=O)[C@H](CCSC)NC(=O)[C@H](Cc1c[nH]c2ccccc12)NC(C)=O)[C@@H](C)CC)[C@@H](C)O)[C@@H](C)CC)C(=O)N[C@@H](CCC(=O)O)C(=O)N[C@@H](CCC(=O)O)C(=O)N[C@@H](CO)C(=O)N[C@@H](CCC(N)=O)C(=O)N[C@@H](CC(N)=O)C(=O)N[C@@H](CCC(N)=O)C(=O)N[C@@H](CCC(N)=O)C(=O)N[C@@H](CCC(=O)O)C(=O)N[C@@H](CCCCN)C(=O)N[C@@H](CC(N)=O)C(=O)N[C@@H](CCC(=O)O)C(=O)N[C@@H](CCC(N)=O)C(=O)N[C@@H](CCC(=O)O)C(=O)N[C@@H](CC(C)C)C(=O)N[C@@H](CC(C)C)C(=O)NCC(=O)N[C@@H](CO)C(=O)NCC(=O)N[C@@H](CSCC(=O)NCCOCCOCCOCCOCCC(=O)O[C@H]1CC[C@@]2(C)C(=CC[C@H]3[C@@H]4CC[C@H]([C@H](C)CCCC(C)C)[C@@]4(C)CC[C@@H]32)C1)C(N)=O` [C34-PEG4-Chol], for which the “Individuals with grade 3 ISR among those administered active drug” value in series [1] (3 men received active drug (10 mg, 10 mg, 20 mg), subcutaneous) was 2 out of 3. For the same compound, the ISR grade entry in series [1] (single subcutaneous 10 mg dose) and in series [1] (single subcutaneous 20 mg dose) was “grade 3” in each case. Also, the “Systemic clinical or laboratory toxicities” value in series [1] (single subcutaneous 10 or 20 mg, 84 days follow up) was “No systemic toxicities were observed; also recorded: No systemic clinical toxicities or laboratory defined toxicities were observed”. Further, the clearance in series [2] (IV 1.0 mg/kg) turned out to be 0.48 mL/min/kg; in series [3] (IV 1.0 mg/kg), 0.078 mL/min/kg. The AUC(0-inf) in series [2] (IV 1.0 mg/kg in 10 mM PBS) came out at 6.6 µM·h; in series [2] (SC 3.5 mg/kg in 10 mM PBS), 1.86 µM·h; in series [3] (IV 1.0 mg/kg in 10 mM PBS), 41.5 µM·h; in series [3] (SC 2.0 mg/kg in 10 mM PBS) it was 37.5 µM·h. The Vd in series [2] (IV 1.0 mg/kg, read-out: Vdss) amounted to 0.08 L/kg; in series [3] (IV 1.0 mg/kg, read-out: Vdss) it was 0.055 L/kg. Further, the half-life was 2.18 h in series [2] (setting [4]) and 8.5 h in series [3] (setting [4]). The peak concentration (Cmax) in series [2] (SC 3.5 mg/kg) stood at 260 nM; in series [3] (SC 2.0 mg/kg), 1150 nM. Moreover, the results for the Tmax in series [2] (SC 3.5 mg/kg) and in series [3] (SC 2.0 mg/kg) were 3.3 h and 6.7 h, respectively. Moreover, the bioavailability in series [2] (SC 3.5 mg/kg) is 7.97%; in series [3] (SC 2.0 mg/kg), 45.3%.
